These results are taken from the supplement of paper PMC11061612.

Common to all, as to assay: Bliss excess, mean over the matrix (fraction); higher = more synergy
The test system of one test is ACHN (Kidney Carcinoma). An outline of the steps:
(§1)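 Bliss excess equals the observed combination effect minus the expected value EA + EB − EA·EB, where EA and EB are the effects of each agent alone. Combination Emax is the second-highest inhibition within the matrix. Inhibition was scaled from CellTiter-Glo 2.0 luminescence, with 0 set by vehicle wells and 1 by blank wells, after 72 hours of two-drug dosing of cells plated in 1536-well plates.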

Test [1] concerns BT-549 (Breast Carcinoma). An outline of the steps:
as §1

Test [2] has as its system EoL-1-cell (Acute Myeloid Leukemia). Summed up:
as §1

Test [3] concerns EFM-19 (Breast Carcinoma). An outline of the steps: as §1
The test system of test [4] is NCI-H727 (Other Solid Carcinomas). An outline of the steps:
as §1

Test [5] relates to MLMA (Other Blood Carcinomas). An outline of the steps: as §1
The subject of another test is UACC-62 (Melanoma). An outline of the steps:
as §1

The subject of the next test is YH-13 (Glioblastoma). Summed up:
as §1

In test [6] the test system is MIA-PaCa-2 (Pancreatic Carcinoma). Summed up:
as §1

A further test deals with EW-24 (Ewing's Sarcoma). Summed up: as §1
The subject of another test is NB69 (Neuroblastoma). Summed up: as §1
In test [7] the test system is Caov-4 (Ovarian Carcinoma). An outline of the steps: as §1
The test system of test [8] is SW13 (Other Solid Carcinomas). Summed up: as §1
Test [9] relates to RF-48 (B-Cell Non-Hodgkin's Lymphoma). An outline of the steps:
as §1

Test [10] concerns Hs-766T (Pancreatic Carcinoma). Summed up: as §1
The next test deals with TGW (Neuroblastoma). An outline of the steps: as §1
The subject of test [11] is LU-65 (Non-Small Cell Lung Carcinoma). An outline of the steps: as §1
Test [12] has as its system AMO-1 (Plasma Cell Myeloma). An outline of the steps:
as §1

The test system of test [13] is PANC-04-03 (Pancreatic Carcinoma). Summed up: as §1
For test [14], the system named is NCI-H358 (Lung Adenocarcinoma). An outline of the steps:
as §1

Regarding `N#Cc1cnc(Nc2cc(NC[C@H]3CNCCO3)c(C(F)(F)F)cn2)cn1` [SRA737] + Nc1ccn([C@@H]2O[C@H](CO)[C@@H](O)C2(F)F)c(=O)n1 [Gemcitabine] (first compound max 10 µM, 7x7, partner max 0.3 µM), the Bliss excess in the test on ACHN (Kidney Carcinoma) was -0.0356; in test [1] it was -0.0532; in test [2], 0.0316; in test [3] it was 0.0489; in test [4] it was -0.0046; in [5], -0.0924. For the same molecule, the Bliss excess was 0.019 in the test with UACC-62 (Melanoma); 0.0032 with YH-13 (Glioblastoma); 0.124 in test [6]; -0.0984 in the test with EW-24 (Ewing's Sarcoma); 0.0366 in the test with NB69 (Neuroblastoma); 0.0158 in test [7]. For the same molecule, the Bliss excess was 0.0367 in test [8]; 0.0451 in test [9]; 0.003 in [10]; -0.0301 in the test on TGW (Neuroblastoma); 0.0224 in test [11]; 0.0377 in [12]. Further, the Bliss excess in [13] is -0.0036; in [14], -0.0054.
Regarding `N#Cc1cnc(Nc2cc(NC[C@H]3CNCCO3)c(C(F)(F)F)cn2)cn1` [SRA737] + O=c1[nH]cc(F)c(=O)[nH]1 [5-Fluorouracil] (first compound max 10 µM, 7x7, partner max 20 µM), the Bliss excess was -0.0547 in the test with ACHN (Kidney Carcinoma); 0.0358 in [1]; -0.0084 in [2]; 0.0189 in test [3]; 0.001 in test [4]; -0.0455 in test [5]. Besides, the Bliss excess in the test on UACC-62 (Melanoma) was -0.0561; with YH-13 (Glioblastoma) it was 0.0119; in [6], -0.0352; in the test on EW-24 (Ewing's Sarcoma), 0.0101; with NB69 (Neuroblastoma), -0.0068; in test [7], -0.0494. For the same molecule, the Bliss excess is -0.026 in [8]; -0.0095 in [9]; 0.0415 in [10]; -0.0389 with TGW (Neuroblastoma); 0.0104 in test [11]; -0.0004 in [12]. The values for the Bliss excess in test [13] and in [14] were 0.0102 and -0.0743, respectively.
In the case of `C[C@@H](c1ccc2nccn2c1)n1nnc2ncc(-c3cnn(C)c3)nc21` [Savolitinib] + CC1(C)CCC(CN2CCN(c3ccc(C(=O)NS(=O)(=O)c4ccc(NCC5CCOCC5)c([N+](=O)[O-])c4)c(Oc4cnc5[nH]ccc5c4)c3)CC2)=C(c2ccc(Cl)cc2)C1 [Venetoclax] (first compound max 1 µM, 7x7, partner max 1 µM), the Bliss excess was -0.0443 in the test with ACHN (Kidney Carcinoma); -0.0439 in test [1]; 0.0273 in [2]; -0.0273 in test [3]; -0.0536 in [4]; -0.022 in test [5]. For the same molecule, the Bliss excess in the test with UACC-62 (Melanoma) was -0.0111; in the test on YH-13 (Glioblastoma), 0.0179; in [6], -0.0355; with EW-24 (Ewing's Sarcoma) it was -0.0739; in the test on NB69 (Neuroblastoma), -0.0378; in [7], -0.0839. In addition, the Bliss excess in [8] is -0.0363; in test [9], -0.0502; in [10] it was -0.0681; in the test on TGW (Neuroblastoma) it was -0.0486; in test [11], -0.0738; in test [12], 0.0036. Also, the Bliss excess was -0.0736 in test [13] and -0.0564 in test [14].
Turning to `C[C@@H](c1ccc2nccn2c1)n1nnc2ncc(-c3cnn(C)c3)nc21` [Savolitinib] + Cc1c2c(nn1C)CSCc1cc(n(C)n1)CSc1cc(c3ccccc3c1)OCCCc1c(C(=O)O)n(C)c3c-2c(Cl)ccc13 [AZD5991] (first compound max 1 µM, 7x7, partner max 1 µM), the Bliss excess in the test with ACHN (Kidney Carcinoma) was -0.0103; in test [1] it was -0.0229; in [2], 0.0703; in test [3] it was -0.0236; in test [4] it was -0.0099; in [5], -0.0122. Besides, the Bliss excess in the test with UACC-62 (Melanoma) was 0.0285; in the test on YH-13 (Glioblastoma), 0.023; in test [6], -0.007; in the test on EW-24 (Ewing's Sarcoma) it was -0.0237; in the test with NB69 (Neuroblastoma) it was -0.0122; in [7] it was -0.011. For the same molecule, the Bliss excess is -0.0541 in test [8]; -0.029 in [9]; -0.0404 in test [10]; -0.0467 in the test with TGW (Neuroblastoma); -0.0437 in test [11]; 0.0251 in test [12]. The Bliss excess in test [13] is -0.0216; in test [14], -0.0538.
